Test results as given in patent publication US7572612B2, “Method of production of para-hydroxycinnamic acid using a thermostable TAL enzyme” (E.I. du Pont de Nemours and Company, priority 2006, dated 2009).

How the values were obtained:
[1] = test system: Phanerochaete chrysosporium tyrosine ammonia lyase PcTAL (PAL/TAL enzyme), wild type, SEQ ID NO:1; assay: PcTAL substrate test with histidine; type: biochemical; details: 20 mM histidine, 100 mM diethanol amime at pH 9, 1.3 mM 2-mercaptoethanol, 0.1 mM MnCl2
Protocol: The increase of TAL and PAL activities with increasing substrate concentrations followed the typical Michaelis-Menton equation. The kcat of the enzyme was 1.3 S^−1 for tyrosine, and 3.3 S^−1 for phenylalanine. The KM was 44 μM for tyrosine and 161 μM for phenylalanine. The kcat/KM value was slightly higher for tyrosine (3.0 M^−1 S^−1) than for phenylalanine (2.1 M^−1 S^−1), indicating the enzyme's slight preference for tyrosine (PAL/TAL ratio of 0.7). […] The substrate specificity of the PcTAL enzyme is therefore similar to other known fungal PAL/TAL enzymes, such as that from R. glutinis, with dual specificity for tyrosine and phenylalanine.

[2] = test system: Phanerochaete chrysosporium tyrosine ammonia lyase PcTAL (PAL/TAL enzyme), wild type, SEQ ID NO:1; assay: Kinetic parameters of the PcTAL enzyme for tyrosine and phenylalanine; type: biochemical; details: 45° C., 100 mM CAPS, pH 9.5 buffer
Protocol: The PAL and TAL activities of the purified enzymes were measured using a spectrophotometer according to Abell et al., [Phenylalanine Ammonia-lyase from Yeast Rhodotorula glutinis,” Methods Enzymol. 142:242-248 (1987)]. The assay for PAL determination was initiated by addition of the enzyme to a 50 mM Tris-HCl (pH 8.5) buffer solution containing 1.0 mM L-phenylalanine. The reaction was followed by monitoring the CA production at λ290 nm and the activity was calculated using a molar extinction coefficient of […]. The assay was run over a 5 min period using an amount of enzyme that produced absorbance changes in the range of 0.0075 to 0.018/min. One unit of activity indicated deamination of 1.0 micro-mol of phenylalanine to CA per minute. The TAL activity was similarly measured using tyrosine, instead of phenylalanine, in the reaction solution. The absorbance of the pHCA produced was followed at λ315 nm and the activity was determined using an extinction coefficient of 10,000 cm^−1 for pHCA. One unit of activity indicated deamination of 1.0 micro-mol of tyrosine to pHCA per minute. Some TAL assays were performed at pH 9.5 or 10.0 in 100 mM CAPS buffer. The TAL activity was measured as described above, except that the extinction coefficient was 16,800 cm^−1 for pHCA.
The TAL assay was typically performed in a 1.5 ml capacity UV grade disposable cuvette (VWR) at 35° C. using a Perkin-Elmer Lamba20 spectrophotometer (Wellesley, Mass.). The reaction (1.0 ml volume) contained the soluble protein sample, 100 mM CAPS pH10 buffer and 10 mM tyrosine and was monitored for 3 minutes at I315 nm. The TAL activity (U/g) was calculated as follows: Total TAL activity (mM/min)=D315 nm/min×[…] divided by pHCA extinction coefficient (M^−1 cm^−1)=D315 nm/min×[…] divided by 16,800 (M^−1 cm^−1). TAL specific activity (U/g)=total TAL activity (mM/min) divided by the amount of protein used in the assay. Gel Electrophoresis
Six grams of cell pellet, from the 10 liter fermentation of DPD5154 was resuspended in 6.0 mL Buffer A (10 mM Tris-HCl, pH 8.0, 200 μM EDTA) containing one EDTA-free protease inhibitor tablet (Roche Biosciences, Palo Alto, Calif.), 1.0 μg/ml Leupeptin, 1.0 μg/ml Pepstatin, 40 μg/ml Bestatin 5.0 mM CA. Cells were lysed by two passes through a French Pressure Cell at 20,000 PSI, and clarified by centrifugation at 12,000×g for 20 minutes. To the clarified supernatant, 1.0% streptomycin sulfate was added, and the suspension was gently mixed for 15 minutes at 4° C. and then clarified by centrifugation at 12,000×g for 20 minutes. The supernatant was heated at 60° C. for 20 min, and centrifuged again at 12,000×g for 20 minutes. […]

Row | acceptance as a substrate [1] | Compound | Km [2] [µM] | kcat [2] [S^−1]
1 | did not accept histidine as a substrate | N[C@@H](Cc1c[nH]cn1)C(=O)O [histidine] |  | 
2 |  | N[C@@H](Cc1ccccc1)C(=O)O [phenylalanine] | 161 | 3.3
3 |  | N[C@@H](Cc1ccc(O)cc1)C(=O)O [tyrosine] | 44 | 1.3
